# From US8242159B2, “1,3-dihydro-5-isobenzofurancarbonitrile derivatives and pharmaceutical composition thereof for the treatment of premature ejaculation” (Dong-A Pharmaceutical. Co., Ltd, priority 2007, dated 2012)
# Experiments:
# [1] = system: Salmonella typhimurium TA98, 100, 1535, 1537, E. coli WP2 uvrA; conditions: reported 'in the same test'; which test is not specified; cited from earlier work
# Sprague-Dawley (SD) rats = experiment: Acute toxicity test, single dose, mortality; assay type: in vivo, rat; parameters: unit not given here
# Source text: The present derivatives and citalopram were individually administered orally and intra-venously to SD rats at a single dose.
# [2] = Determination of half-lives of the compounds in rats (oral, plasma HPLC); assay type: in vivo; conditions: rat, male Sprague-Dawley rats, 10 mg/kg (text also says 5 mg/kg), 0.5% methylcellulose
# Method: The half-lives of present compounds were determined as follows. Each compound was administered orally to male Sprague-Dawley rats weighing approximately 270 g at a dose of 10 mg/kg. 5 mg/kg of each compound was suspended in 0.5% methyl-cellulose and then administered to rats. Blood samples were collected 0.017, 0.083, 0.25, 0.5, 1, 2, 3, 5, 7 and 24 hours after administration, and centrifuged at 1,000 rpm for 3 min to separate plasma. The concentration of each compound in plasma was determined using high performance liquid chromatography, which was performed with a mobile phase of 10 mM ammonium formate (pH 3.0) and acetonitrile (50:50), an […] column (21×100 mm, 3 μm) and a flow rate of 0.2 ml/min.
# [3] = system: CHL (Chinese Hamster Lung) cell; experiment: Mutagenicity test: chromosome aberration test; assay type: cell-based; conditions: 75, 150, 300 μg/ml with metabolic activation; 20, 40, 80 μg/ml without
# Method: (§1) To evaluate the safety of the present derivatives, mutagenicity test was conducted. Ames test and chromosome aberration test were conducted with the examples 2, 35, 40 and 45.
# [4] = target: hERG (human Ether-a-go-go Related Gene) (Homo sapiens, UniProt Q12809); experiment: Cardiotoxicity test, hERG assay (MDS Pharma)
# Chain of hERG (human Ether-a-go-go Related Gene) (Q12809 whole entry): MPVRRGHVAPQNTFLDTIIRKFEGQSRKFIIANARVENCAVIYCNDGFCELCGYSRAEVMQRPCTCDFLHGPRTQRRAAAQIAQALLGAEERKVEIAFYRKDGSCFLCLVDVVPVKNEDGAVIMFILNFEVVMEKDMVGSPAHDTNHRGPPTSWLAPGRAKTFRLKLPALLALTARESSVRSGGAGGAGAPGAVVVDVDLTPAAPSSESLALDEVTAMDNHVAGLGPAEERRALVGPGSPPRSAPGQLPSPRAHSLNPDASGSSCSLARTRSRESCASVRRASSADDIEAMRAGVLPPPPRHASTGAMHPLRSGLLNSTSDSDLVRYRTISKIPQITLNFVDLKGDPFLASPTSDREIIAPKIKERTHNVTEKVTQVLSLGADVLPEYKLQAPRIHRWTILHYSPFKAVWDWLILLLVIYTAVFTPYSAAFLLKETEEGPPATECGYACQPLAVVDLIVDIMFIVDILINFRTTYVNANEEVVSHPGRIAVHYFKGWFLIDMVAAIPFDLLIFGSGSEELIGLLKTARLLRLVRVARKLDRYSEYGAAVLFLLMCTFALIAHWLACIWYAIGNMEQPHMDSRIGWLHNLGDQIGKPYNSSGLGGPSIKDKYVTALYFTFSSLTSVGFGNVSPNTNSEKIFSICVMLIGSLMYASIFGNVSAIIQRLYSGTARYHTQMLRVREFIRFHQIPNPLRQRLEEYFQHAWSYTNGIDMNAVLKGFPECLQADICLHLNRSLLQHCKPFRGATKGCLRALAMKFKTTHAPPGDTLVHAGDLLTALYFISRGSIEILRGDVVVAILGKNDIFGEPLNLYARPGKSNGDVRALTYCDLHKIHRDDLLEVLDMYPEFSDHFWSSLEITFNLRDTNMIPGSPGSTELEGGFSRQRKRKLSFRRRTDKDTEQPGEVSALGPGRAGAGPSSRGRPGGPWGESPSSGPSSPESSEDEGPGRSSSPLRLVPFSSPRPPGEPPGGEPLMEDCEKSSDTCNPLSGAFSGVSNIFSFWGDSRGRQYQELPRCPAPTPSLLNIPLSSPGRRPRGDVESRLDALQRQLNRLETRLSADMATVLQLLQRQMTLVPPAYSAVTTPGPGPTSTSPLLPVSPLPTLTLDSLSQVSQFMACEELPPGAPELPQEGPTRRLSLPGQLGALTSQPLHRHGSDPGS
# Source text: To evaluate the safety of the present derivatives in comparison with control drug, conducted was hERG (human Ether-a-go-go Related Gene) assay which is a representative test of safety medical test. This test was requested to trial institute MDS Pharma., which conducted this test.
# [5] = system: cellular uptake of serotonin; experiment: Cellular reuptake assay, [3H]serotonin; assay type: cell-based; conditions: Homo sapiens, HEK293, 10 min, HEK-293 cell line
# Method: (§2) First, the effects of the present compounds on cellular uptake of dopamine, norepinephrine and serotonin were evaluated with human-derived CHO-1, MDCK and HEK-293 cell lines. Each cell line was dosed with 10^−5 μM to 10^4 μM of the compounds of Examples 2, 35, 40 and 45, and then incubated with [^3H]dopamine, [^3H]norepinephrine and [^3H]serotonin in buffer. After 10 min, the amount of each neurotransmitter taken up into cells was determined by counting radioactivity using a liquid scintillation counter (LSC).
# 5-HT1B receptor = target: T1, 5-HT1B receptor (Rattus norvegicus, UniProt P28564); experiment: Radioligand competitive binding assay, [125I]Cyanopindolol; conditions: Wistar rat-derived cerebral cortical cells
# T1 construct: Wistar rat-derived cerebral cortical cells; from tissue; host or cells: Wistar rat cerebral cortex
# T1 sequence (P28564 whole entry): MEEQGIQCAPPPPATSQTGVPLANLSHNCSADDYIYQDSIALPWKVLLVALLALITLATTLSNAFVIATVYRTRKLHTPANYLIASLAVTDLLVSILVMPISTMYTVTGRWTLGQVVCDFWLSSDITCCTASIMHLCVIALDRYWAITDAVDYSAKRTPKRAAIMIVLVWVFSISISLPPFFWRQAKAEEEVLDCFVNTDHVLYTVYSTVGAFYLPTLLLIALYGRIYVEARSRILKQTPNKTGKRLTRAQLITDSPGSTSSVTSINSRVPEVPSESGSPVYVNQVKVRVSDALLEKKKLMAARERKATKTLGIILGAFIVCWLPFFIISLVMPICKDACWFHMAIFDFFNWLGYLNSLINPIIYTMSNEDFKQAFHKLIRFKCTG
# Method: (§3) In addition, ligand binding to 5HT1A, 5-HT1B and 5-HT2C receptors and 5-HT transporter was evaluated with human-derived recombinant CHO cells, Wistar rat-derived cerebral cortical cells, human-derived recombinant CHO-K1 cells, and human-derived recombinant HEK-293 cells. Each cell line was dosed with 10^−5 μM to 10^4 μM of the compounds of Examples 2, 35, 40 and 45, and then incubated with a radio-labeled ligand for competitive binding. Ligands used were […], [^125I]Cyanopindolol, [^3H]Mesulergine and [^3H]Paroxetine, respectively. The competitive binding assay was carried out in 50 mM Tris-HCl buffer at 25° C. or 37° C., for 60 to 90 min.
# 5-HT transporter = target: T2, 5-HT transporter (Homo sapiens, UniProt P31645); experiment: Radioligand competitive binding assay, [3H]Paroxetine; conditions: human-derived recombinant HEK-293 cells
# T2 construct: expressed in transfected cells; host or cells: HEK-293 cells
# T2 sequence (P31645 whole entry): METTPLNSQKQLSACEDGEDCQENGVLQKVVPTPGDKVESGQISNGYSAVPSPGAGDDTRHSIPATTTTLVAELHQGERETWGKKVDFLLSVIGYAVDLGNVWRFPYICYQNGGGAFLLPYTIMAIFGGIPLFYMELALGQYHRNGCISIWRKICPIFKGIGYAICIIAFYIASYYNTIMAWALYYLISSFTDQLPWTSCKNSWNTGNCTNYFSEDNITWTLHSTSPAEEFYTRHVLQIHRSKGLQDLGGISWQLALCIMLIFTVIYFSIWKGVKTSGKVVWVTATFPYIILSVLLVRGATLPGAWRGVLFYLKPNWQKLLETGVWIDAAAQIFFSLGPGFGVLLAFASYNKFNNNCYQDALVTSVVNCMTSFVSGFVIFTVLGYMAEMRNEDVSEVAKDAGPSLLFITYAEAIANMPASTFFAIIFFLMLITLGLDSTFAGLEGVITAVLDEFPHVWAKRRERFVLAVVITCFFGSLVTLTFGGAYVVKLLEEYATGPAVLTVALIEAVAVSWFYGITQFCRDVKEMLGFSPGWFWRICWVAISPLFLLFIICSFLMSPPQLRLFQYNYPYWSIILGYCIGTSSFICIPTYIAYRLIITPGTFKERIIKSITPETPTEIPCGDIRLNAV
# Method: as §3
# 5HT1A receptor = target: T3, 5HT1A receptor (Homo sapiens, UniProt P08908); experiment: Radioligand competitive binding assay; conditions: human-derived recombinant CHO cells
# T3 construct: expressed in transfected cells; host or cells: CHO cells
# T3 sequence (P08908 1-422): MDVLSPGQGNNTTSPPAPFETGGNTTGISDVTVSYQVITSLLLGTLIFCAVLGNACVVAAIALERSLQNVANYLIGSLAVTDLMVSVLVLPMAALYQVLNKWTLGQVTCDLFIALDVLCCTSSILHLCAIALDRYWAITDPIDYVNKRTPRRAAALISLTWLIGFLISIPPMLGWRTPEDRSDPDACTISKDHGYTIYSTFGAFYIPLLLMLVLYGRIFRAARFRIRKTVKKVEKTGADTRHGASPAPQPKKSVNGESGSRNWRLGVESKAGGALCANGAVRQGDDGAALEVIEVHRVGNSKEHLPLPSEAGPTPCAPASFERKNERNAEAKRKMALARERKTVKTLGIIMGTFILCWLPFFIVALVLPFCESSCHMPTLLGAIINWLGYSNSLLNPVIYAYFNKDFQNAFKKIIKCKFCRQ
# Method: as §3
# [6] = system: cellular uptake of norepinephrine; experiment: Cellular reuptake assay, [3H]norepinephrine; assay type: cell-based; conditions: 10 min, MDCK cell line
# Method: as §2
# [7] = system: Salmonella typhimurium TA98, 100, 1535, 1537, E. coli WP2 uvrA; experiment: Mutagenicity test: Ames test; assay type: cell-based; conditions: 8, 40, 200, 1000, 2500, 5000 μg/plate, presence/absence of a metabolic activation system
# Method: as §1
# Male Wistar rats = experiment: p-PCA-induced ejaculation in anesthetized rats (ejaculation-delaying effect); assay type: in vivo, rat; conditions: for Ratio: Number of responding animals/total animal number: 50 mg/kg oral in 1% HPMC, p-PCA 5 mg/kg i.p. 80 min later, observed 30 min; for Latency: Time to display the ejaculatory response: 50 mg/kg oral, p-PCA 5 mg/kg i.p., mean ± standard deviation of responding rats
# Method: The compounds prepared in the above examples were evaluated to determine whether they have an effect of delaying ejaculation. The evaluation was carried out using an animal model according to a method described in Yonezawa et al., Life Sci. 2000, 67(25) p 3031-9. Male Wistar rats weighing 240-260 g were used. Each compound was suspended in 1% HPMC, and then administered orally to each animal. After 60 min, the animals were anesthetized and fixed. 20 min later, para-chloroamphetamine (p-PCA) was intraperitoneally administered in a dose of 5 mg/kg in order to induce ejaculation. […] An ejaculatory response was considered to be elicited when rhythmic contraction of bulbocavernosus muscles and semen discharge occurs. Six or more animals were used for each compound. A Fisher's […] test was performed for the comparison of the proportion of responding rats (ejaculated rats) to determine significance of difference between a treatment group and a vehicle control. The time to reach ejaculation was expressed as mean±standard deviation.
# Each test compound was administered at a dose of 50 mg/kg. Ejaculation was elicited in all seven animals of a control group.
# [8] = system: cellular uptake of dopamine; experiment: Cellular reuptake assay, [3H]dopamine; assay type: cell-based; conditions: 10 min, CHO-1 cell line
# Method: as §2
# 5-HT2C receptor = target: T4, 5-HT2C receptor (Homo sapiens, UniProt P28335); experiment: Radioligand competitive binding assay, [3H]Mesulergine; conditions: human-derived recombinant CHO-K1 cells
# T4 construct: expressed in transfected cells; host or cells: CHO-K1 cells
# T4 sequence (P28335 33-458): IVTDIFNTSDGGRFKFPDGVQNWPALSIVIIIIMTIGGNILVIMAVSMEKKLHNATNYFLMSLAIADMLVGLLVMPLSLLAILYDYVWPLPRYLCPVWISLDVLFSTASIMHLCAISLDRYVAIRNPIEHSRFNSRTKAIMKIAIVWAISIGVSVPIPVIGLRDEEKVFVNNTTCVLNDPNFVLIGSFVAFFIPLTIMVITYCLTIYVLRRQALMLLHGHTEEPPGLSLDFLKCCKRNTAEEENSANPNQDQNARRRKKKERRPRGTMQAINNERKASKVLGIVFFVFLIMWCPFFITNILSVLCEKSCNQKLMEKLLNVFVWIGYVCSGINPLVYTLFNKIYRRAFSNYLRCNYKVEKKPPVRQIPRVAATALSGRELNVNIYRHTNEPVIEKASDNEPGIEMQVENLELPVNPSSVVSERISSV
# Method: as §3
Structure (SMILES),mutagenicity test result as reported [1],"minimum lethal dose (Sprague-Dawley (SD) rats; Intravenously, female SD rats)","minimum lethal dose (Sprague-Dawley (SD) rats; Intravenously, male SD rats)","minimum lethal dose (Sprague-Dawley (SD) rats; Orally, female SD rats)","minimum lethal dose (Sprague-Dawley (SD) rats; Orally, male SD rats)",Tmax [2],half-life [2],chromosome aberration test result [3],IC50 [4],IC50 [5],IC50 (5-HT1B receptor),IC50 (5-HT transporter),IC50 (5HT1A receptor),IC50 [6],Ames test result [7],Ratio: Number of responding animals/total animal number (Male Wistar rats),IC50 [8],IC50 (5-HT2C receptor),Latency: Time to display the ejaculatory response (Male Wistar rats)
"CN(C)CCCC1(c2ccc(F)cc2)OCc2cc(C#N)ccc21 (stereo not shown) [Citalopram, reference compound]",positive,30,30,650,650,19.8 min,194 min,,,,,,,,,,,,
"COc1ccc(C2(CCCN(C)C)OCc3cc(C#N)ccc32)cc1.O=C(O)C(=O)O (stereo not shown) [Ex. 2, 1-{3-(dimethylamino)propyl}-1-(4-methoxyphenyl)-1,3-dihydro-5-isobenzofurancarbonitrile oxalate]",,70,70,1000,1000,19.8 min,76.8 min,negative,19.4 µM,0.304 µM,> 1000 µM,< 0.0001 µM,805 µM,36.5 µM,negative,0/9,85.7 µM,7.12 µM,
"CN(C)CCCC1(c2ccc(N(C)C)cc2)OCc2cc(C#N)ccc21.O=C(O)C(=O)O (stereo not shown) [Ex. 35, 1-(4-dimethylaminophenyl)-1-{3-(dimethylamino)propyl}-1,3-dihydro-5-isobenzofurancarbonitrile oxalate]",,50,50,1000,1000,15 min,211 min,negative,12.2 µM,0.425 µM,> 1000 µM,0.001 µM,1120 µM,53.2 µM,negative,0/9,100 µM,898 µM,
"CN(C)CCCC1(c2cccs2)OCc2cc(C#N)ccc21.O=C(O)C(=O)O (stereo not shown) [Ex. 40, 1-{3-(dimethylamino)propyl}-1-(2-thienyl)-1,3-dihydro-5-isobenzofurancarbonitrile oxalate]",,50,50,800,800,15 min,75.6 min,negative,8.7 µM,0.531 µM,> 1000 µM,0.0125 µM,967 µM,69.1 µM,negative,3/9,124 µM,10.1 µM,876 ± 110 s
"N#Cc1ccc2c(c1)COC2(CCCn1ccnc1)c1cccs1.O=C(O)C(=O)O (stereo not shown) [Ex. 45, 1-{3-(imidazole-1-yl)propyl}-1-(2-thienyl)-1,3-dihydro-5-isobenzofurancarbonitrile oxalate]",,50,50,1000,1000,15 min,63.6 min,negative,10.6 µM,0.465 µM,> 1000 µM,0.0087 µM,898 µM,67.3 µM,negative,2/9,94.2 µM,8.88 µM,676 ± 10 s
"N#Cc1ccc2c(c1)COC2(CCCn1cccn1)c1ccc(Cl)cc1 (stereo not shown) [Ex. 65, 1-(4-chlorophenyl)-1-{3-(pyrazole-1-yl)propyl}-1,3-dihydro-5-isobenzofurancarbonitrile]",,,,,,,,,,,,,,,,5/9,,,801 ± 401 s
"Cl.N#Cc1ccc2c(c1)COC2(CCCn1cccn1)c1ccc(Cl)cc1 (stereo not shown) [Ex. 66, 1-(4-chlorophenyl)-1-{3-(pyrazole-1-yl)propyl}-1,3-dihydro-5-isobenzofurancarbonitrile hydrochloride]",,,,,,,,,,,,,,,,4/7,,,960 ± 350 s
"N#Cc1ccc2c(c1)COC2(CCn1cccn1)c1ccc(Cl)cc1 (stereo not shown) [Ex. 67, 1-(4-chlorophenyl)-1-{2-(pyrazole-1-yl)ethyl}-1,3-dihydro-5-isobenzofurancarbonitrile]",,,,,,,,,,,,,,,,3/7,,,853 ± 352 s
"Cl.N#Cc1ccc2c(c1)COC2(CCn1cccn1)c1ccc(Cl)cc1 (stereo not shown) [Ex. 68, 1-(4-chlorophenyl)-1-{2-(pyrazole-1-yl)ethyl}-1,3-dihydro-5-isobenzofurancarbonitrile hydrochloride]",,,,,,,,,,,,,,,,4/9,,,908 ± 274 s
